Reference: US20250163052A1, “cGAS INHIBITORS AND USES THEREOF” (Cornell University, priority 2022, published 2025)
Where two headings read alike, the source gives them in different places. Each block holds one compound with its values, some of them ahead of it.

Columns and labels:
[1] = test system: NFkB-SEAP; test: THP1-Dual cells transfected with DNA, nfkb expression (Quantiblue); format: cell-based; details: Homo sapiens; for inhibition at 10 µM: THP-1, 10 μM; for inhibition at 30 µM: THP-1, 30 μM
Summary of the method: (§1)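 Readouts after overnight incubation: Quantiluc luminescence for Ifnb, Quantiblue for nfkb (both in supernatant) and CellTiter-Glo for viability. Before the DNA stimulus (2 ug/ml, lipofectamine transfection), THP1-Dual cells received compound at several dilutions for 4 h.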

[2] = Metabolic stability in mouse liver microsomes; details: for Remaining (NCF = 60 min) / Remaining (T = 60 min): mouse liver microsomes; for Remaining (NCF = 60 min): no co-factor (no NADPH); for Remaining (T = 60 min): 60 min with NADPH; for CLint scaled / half-life / microsomal CLint: mouse, liver microsomes
[3] = target: m-cGAS (Mus musculus, UniProt Q8C6L5); test: Cell-free mouse cGAS enzyme inhibition assay (ATP depletion, Kinase-Glo Max); format: biochemical; details: 1 h; for inhibition at 1 µM: read-out: m-cGAS, conc. 1 μM; for inhibition at 10 µM: read-out: m-cGAS, conc. 10 μM
m-cGAS, sequence (Q8C6L5 whole entry): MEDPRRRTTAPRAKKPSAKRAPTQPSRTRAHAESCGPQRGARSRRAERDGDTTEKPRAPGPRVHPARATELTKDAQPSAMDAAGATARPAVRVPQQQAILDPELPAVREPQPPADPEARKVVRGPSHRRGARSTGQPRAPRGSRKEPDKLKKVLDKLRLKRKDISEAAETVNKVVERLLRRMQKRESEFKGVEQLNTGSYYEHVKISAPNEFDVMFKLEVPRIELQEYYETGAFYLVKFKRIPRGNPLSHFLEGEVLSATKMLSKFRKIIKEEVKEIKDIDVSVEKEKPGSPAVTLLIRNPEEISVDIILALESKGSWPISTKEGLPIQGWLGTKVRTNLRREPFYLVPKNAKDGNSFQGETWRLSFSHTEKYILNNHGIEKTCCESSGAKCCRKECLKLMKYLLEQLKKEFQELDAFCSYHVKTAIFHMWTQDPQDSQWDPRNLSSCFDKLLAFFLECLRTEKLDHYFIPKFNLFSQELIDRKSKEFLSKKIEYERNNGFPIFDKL

[4] = test system: THP1 cells; test: THP1-Dual cells, cell viability (CellTiter-Glo); format: cell-based
Summary of the method: as §1

[5] = Protein binding in mouse brain homogenates; format: in vitro ADME; details: for recovery at 6 h / fraction unbound at 6 hr: brain homogenate; for fraction unbound at 6 hr: read-out: % BoundBrain (converted)
[6] = test system: IFNB; test: THP1-Dual cells transfected with DNA, Ifnb expression (Quantiluc); format: cell-based; details: Homo sapiens; for inhibition at 10 µM: THP-1, 10 μM; for inhibition at 30 µM: THP-1, 30 μM
Summary of the method: as §1

[7] = Metabolic stability in human liver microsomes; details: for Remaining (NCF = 60 min) / Remaining (T = 60 min): human liver microsomes; for Remaining (NCF = 60 min): no co-factor (no NADPH); for Remaining (T = 60 min): 60 min with NADPH; for CLint scaled / half-life / microsomal CLint: human, liver microsomes
[8] = target: h-cGAS (Homo sapiens, UniProt Q8N884); test: Cell-free human cGAS enzyme inhibition assay (ATP depletion, Kinase-Glo Max); format: biochemical; details: 3 h; for inhibition at 1 µM: read-out: h-cGAS, conc. 1 μM; for inhibition at 10 µM: read-out: h-cGAS, conc. 10 μM
h-cGAS, sequence (Q8N884 whole entry): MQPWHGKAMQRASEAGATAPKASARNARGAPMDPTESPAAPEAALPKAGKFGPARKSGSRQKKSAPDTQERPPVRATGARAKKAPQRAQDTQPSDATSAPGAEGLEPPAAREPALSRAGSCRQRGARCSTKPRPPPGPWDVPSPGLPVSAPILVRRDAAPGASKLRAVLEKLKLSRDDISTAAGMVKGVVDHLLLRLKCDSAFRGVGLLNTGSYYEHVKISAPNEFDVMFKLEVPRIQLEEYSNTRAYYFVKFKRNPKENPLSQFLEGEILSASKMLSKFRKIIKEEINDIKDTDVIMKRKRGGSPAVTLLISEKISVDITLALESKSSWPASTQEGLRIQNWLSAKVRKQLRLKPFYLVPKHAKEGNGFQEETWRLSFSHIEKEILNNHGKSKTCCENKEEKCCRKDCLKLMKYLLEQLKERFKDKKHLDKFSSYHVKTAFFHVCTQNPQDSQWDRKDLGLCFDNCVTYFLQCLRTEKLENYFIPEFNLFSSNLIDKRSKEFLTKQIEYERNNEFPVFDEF

[9] = target: hERG (Homo sapiens, UniProt Q12809); test: Safety panel screening, hERG automated patch clamp; format: cell-based; details: read-out: Mean percentage inhibition (%) at 10 μM, hERG
hERG, sequence (Q12809 whole entry): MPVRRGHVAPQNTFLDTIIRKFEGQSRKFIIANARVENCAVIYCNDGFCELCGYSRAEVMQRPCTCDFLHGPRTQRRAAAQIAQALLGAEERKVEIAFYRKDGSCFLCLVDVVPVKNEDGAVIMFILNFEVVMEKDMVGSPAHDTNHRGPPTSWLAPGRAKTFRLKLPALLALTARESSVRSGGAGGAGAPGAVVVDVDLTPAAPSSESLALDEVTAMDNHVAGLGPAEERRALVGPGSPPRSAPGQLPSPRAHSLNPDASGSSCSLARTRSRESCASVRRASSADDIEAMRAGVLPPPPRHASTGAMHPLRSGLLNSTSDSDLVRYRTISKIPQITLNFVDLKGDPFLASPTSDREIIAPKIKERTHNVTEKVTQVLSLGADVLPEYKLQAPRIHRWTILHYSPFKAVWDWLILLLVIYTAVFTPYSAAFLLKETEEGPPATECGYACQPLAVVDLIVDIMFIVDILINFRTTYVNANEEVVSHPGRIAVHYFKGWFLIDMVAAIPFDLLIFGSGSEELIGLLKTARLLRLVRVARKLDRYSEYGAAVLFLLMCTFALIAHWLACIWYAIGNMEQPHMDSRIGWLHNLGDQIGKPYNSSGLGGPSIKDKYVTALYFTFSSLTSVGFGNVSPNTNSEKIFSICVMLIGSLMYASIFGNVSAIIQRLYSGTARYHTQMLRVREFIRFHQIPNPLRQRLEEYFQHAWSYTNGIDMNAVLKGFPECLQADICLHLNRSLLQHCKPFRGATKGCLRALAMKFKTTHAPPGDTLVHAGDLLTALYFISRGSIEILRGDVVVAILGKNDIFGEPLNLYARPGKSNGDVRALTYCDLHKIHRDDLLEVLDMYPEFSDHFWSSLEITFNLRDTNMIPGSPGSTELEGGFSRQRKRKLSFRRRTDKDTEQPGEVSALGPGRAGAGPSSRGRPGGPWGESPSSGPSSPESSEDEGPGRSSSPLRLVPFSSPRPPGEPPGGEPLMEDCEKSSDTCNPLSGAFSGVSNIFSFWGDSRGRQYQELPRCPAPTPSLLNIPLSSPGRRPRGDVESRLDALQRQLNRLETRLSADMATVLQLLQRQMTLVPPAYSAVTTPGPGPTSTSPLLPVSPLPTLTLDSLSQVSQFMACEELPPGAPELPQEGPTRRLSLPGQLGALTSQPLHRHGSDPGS

[10] = target: PDE4D2 (Homo sapiens, UniProt Q08499); test: Safety panel screening, PDE4D2 IMAP; format: biochemical; details: read-out: Mean percentage inhibition (%) at 10 μM, PDE4D2
PDE4D2, sequence (Q08499 303-809): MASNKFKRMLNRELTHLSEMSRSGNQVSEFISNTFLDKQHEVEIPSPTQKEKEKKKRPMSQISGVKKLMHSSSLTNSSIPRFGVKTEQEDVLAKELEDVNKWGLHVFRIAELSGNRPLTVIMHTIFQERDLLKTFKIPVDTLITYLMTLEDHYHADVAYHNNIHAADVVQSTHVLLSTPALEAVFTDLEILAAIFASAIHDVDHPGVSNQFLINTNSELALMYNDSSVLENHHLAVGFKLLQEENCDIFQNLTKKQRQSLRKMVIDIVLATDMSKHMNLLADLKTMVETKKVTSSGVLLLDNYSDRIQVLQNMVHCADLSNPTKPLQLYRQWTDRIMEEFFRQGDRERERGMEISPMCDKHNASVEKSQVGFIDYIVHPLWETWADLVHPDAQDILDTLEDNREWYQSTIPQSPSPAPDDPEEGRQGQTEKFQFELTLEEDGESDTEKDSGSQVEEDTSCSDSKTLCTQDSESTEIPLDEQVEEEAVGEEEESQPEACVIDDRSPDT

[11] = target: D1 (Homo sapiens, UniProt P21728); test: Safety panel screening, D1 cAMP assay; format: cell-based
D1, sequence (P21728 whole entry): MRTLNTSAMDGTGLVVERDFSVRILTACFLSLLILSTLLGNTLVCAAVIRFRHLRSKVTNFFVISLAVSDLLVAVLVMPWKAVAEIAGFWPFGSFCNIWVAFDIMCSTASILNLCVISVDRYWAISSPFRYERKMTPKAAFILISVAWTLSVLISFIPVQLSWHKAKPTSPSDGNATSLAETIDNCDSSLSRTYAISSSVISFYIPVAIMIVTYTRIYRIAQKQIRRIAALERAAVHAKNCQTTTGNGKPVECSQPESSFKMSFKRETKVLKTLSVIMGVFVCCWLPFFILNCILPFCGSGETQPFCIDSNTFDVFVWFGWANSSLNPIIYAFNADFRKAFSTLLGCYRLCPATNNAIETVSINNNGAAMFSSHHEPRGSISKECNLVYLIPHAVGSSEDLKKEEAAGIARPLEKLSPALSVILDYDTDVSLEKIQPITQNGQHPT

[12] = target: 5HT2B (Homo sapiens, UniProt P41595); test: Safety panel screening, 5HT2B Ca2+ mobilization; format: cell-based
5HT2B, sequence (P41595 whole entry, species assumed): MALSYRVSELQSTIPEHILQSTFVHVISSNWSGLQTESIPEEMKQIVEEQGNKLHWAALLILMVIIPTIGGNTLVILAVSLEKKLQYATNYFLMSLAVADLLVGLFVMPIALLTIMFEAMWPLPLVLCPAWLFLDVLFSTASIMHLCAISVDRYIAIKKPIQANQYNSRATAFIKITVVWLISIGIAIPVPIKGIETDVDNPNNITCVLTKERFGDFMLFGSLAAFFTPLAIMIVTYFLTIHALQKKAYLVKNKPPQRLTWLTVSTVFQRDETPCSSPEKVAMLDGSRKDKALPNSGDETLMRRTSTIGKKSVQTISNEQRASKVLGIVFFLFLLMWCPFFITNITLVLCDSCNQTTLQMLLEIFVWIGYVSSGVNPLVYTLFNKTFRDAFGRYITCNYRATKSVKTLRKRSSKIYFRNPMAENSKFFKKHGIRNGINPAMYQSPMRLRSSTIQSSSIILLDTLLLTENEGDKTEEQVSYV

[13] = Pharmacokinetic study, plasma and brain PK parameters after I.P. dosing; format: in vivo, mouse; details: 25 mg/Kg I.P.; for Kp: brain/plasma, 25 mg/kg
Experimental: To test pharmacokinetics, TDI-6570 ([…] solution in water containing 0.2% Tween 80) was administered to 8-weeks old CD-1 male mice (n=3 for each time point) intraperitoneally (IP) and both plasma (EDTA-K2) and brain tissues were collected at various time points (0.5, 2, 4, 8 and 24 hours post drug administration). Transcardial perfusion were performed with saline prior to brain collection. Bioanalysis of brain tissue and plasma extracts were performed by LC-MS/MS.

[14] = target: SET (Homo sapiens, UniProt P31645); test: Safety panel screening, serotonin transporter neurotransmitter uptake; format: cell-based; details: read-out: Mean percentage inhibition (%) at 10 μM, SET
SET, sequence (P31645 whole entry): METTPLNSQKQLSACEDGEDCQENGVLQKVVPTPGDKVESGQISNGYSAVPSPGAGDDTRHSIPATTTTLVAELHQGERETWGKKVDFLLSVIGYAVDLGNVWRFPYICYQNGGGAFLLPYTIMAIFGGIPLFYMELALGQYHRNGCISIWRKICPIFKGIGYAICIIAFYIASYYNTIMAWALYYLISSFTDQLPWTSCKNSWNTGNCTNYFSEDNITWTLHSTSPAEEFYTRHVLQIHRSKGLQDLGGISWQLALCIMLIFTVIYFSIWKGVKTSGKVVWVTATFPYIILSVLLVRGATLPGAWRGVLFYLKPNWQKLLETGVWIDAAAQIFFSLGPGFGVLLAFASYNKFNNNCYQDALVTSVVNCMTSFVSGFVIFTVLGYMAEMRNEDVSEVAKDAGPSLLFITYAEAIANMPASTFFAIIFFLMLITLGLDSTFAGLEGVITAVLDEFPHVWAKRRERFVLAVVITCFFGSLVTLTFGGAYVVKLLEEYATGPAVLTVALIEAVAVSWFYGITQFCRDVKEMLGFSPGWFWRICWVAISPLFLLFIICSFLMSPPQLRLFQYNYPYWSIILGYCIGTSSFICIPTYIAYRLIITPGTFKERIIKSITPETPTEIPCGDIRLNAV

- Remaining (NCF = 60 min) [2]: 90.0%
- Remaining (T = 60 min) [2]: 72.5%
- CLint scaled [2]: 38.5 mL/min/kg
- half-life [2]: 142 min
- microsomal CLint [2]: 9.7 µL/min/mg
- inhibition at 1 µM [3]: 75 to 100%
- inhibition at 10 µM [3]: 75 to 100%
- LogK [5]: >4.39
- % Remaining at 6 hr [5]: 90.87%
- recovery at 6 h [5]: < 82.4%
- fraction unbound at 6 hr [5]: < 4e-05
- Remaining (NCF = 60 min) [7]: 109.6%
- Remaining (T = 60 min) [7]: 87.6%
- CLint scaled [7]: < 8.6 mL/min/kg
- half-life [7]: > 145 min
- microsomal CLint [7]: < 9.6 µL/min/mg
- inhibition at 1 µM [8]: 50 to 74%
- inhibition at 10 µM [8]: 75 to 100%
SMILES: Cn1cc(-c2cc(Cl)c(Cl)c3oc4c(c23)CN(C(=O)CN)CC4)cn1 [Compound 33]
- inhibition at 10 µM [1]: 25 to 49%
- inhibition at 30 µM [1]: 75 to 100%
- Cell viability 10 μM [4]: +++ (+, ++, and +++ mean the compound respectively shows 25-49%; 50-74%; or 75-100% viability to cells)
- Cell viability 30 μM [4]: + (+, ++, and +++ mean the compound respectively shows 25-49%; 50-74%; or 75-100% viability to cells)
- inhibition at 10 µM [6]: 25 to 49%
- inhibition at 30 µM [6]: 75 to 100%

- Remaining (NCF = 60 min) [2]: 94.7%
- Remaining (T = 60 min) [2]: 88.1%
- CLint scaled [2]: 87.2 mL/min/kg
- half-life [2]: 2 min
- microsomal CLint [2]: 679 µL/min/mg
- inhibition at 10 µM [3]: 0 to 24%
- LogK [5]: >4.17
- % Remaining at 6 hr [5]: 92.46%
- recovery at 6 h [5]: < 91.1%
- fraction unbound at 6 hr [5]: < 0.0001
- inhibition at 1 µM [8]: 0 to 24%
- inhibition at 10 µM [8]: 50 to 74%
- AUC_%Extrap_obs (Brain) ([13]; brain): 0.813%
- AUClast/D (Brain) ([13]; brain): 5081 mg·h/mL
- Cmax (Brain) ([13]; brain): 19853 ng/mL
- Kp ([13]; mouse, ip, read-out: AUClast Ratio (brain/plasma)): 3.79
- Kp ([13]; mouse, ip, read-out: Cmax Ratio (brain/plasma)): 3.14
- AUC(0-inf) ([13]; mouse, ip, brain, read-out: AUCInf (Brain)): 128000 ng·h/mL
- AUC(0-t) ([13]; mouse, ip, brain, read-out: AUClast (Brain)): 127000 ng·h/mL
- MRT inf ([13]; mouse, ip, brain, read-out: MRTInf_obs (Brain)): 4.69 h
- half-life ([13]; mouse, ip, brain, read-out: T1/2 (Brain) (converted)): 207 min
- Tmax ([13]; mouse, ip, brain, read-out: Tmax (Brain)): 2 h
- Cmax ([13]; mouse, ip, plasma): 6320 ng/mL
- AUC(0-inf) ([13]; mouse, ip, plasma, read-out: AUCInf (plasma)): 33500 ng·h/mL
- AUC(0-t) ([13]; mouse, ip, plasma, read-out: AUClast (plasma)): 33500 ng·h/mL
- MRT inf ([13]; mouse, ip, plasma, read-out: MRTInf_obs (plasma)): 4.95 h
- half-life ([13]; mouse, ip, plasma, read-out: T1/2 (plasma) (converted)): 272 min
- Tmax ([13]; mouse, ip, plasma, read-out: Tmax (plasma)): 1 h
- AUC_%Extrap_obs (plasma) ([13]; plasma): 0.0394%
- AUClast/D (plasma) ([13]; plasma): 1339 mg·h/mL
SMILES: Cn1cc(-c2cc(Cl)c(Cl)c3sc4c(c23)CN(C(=O)CO)CC4)cn1 [Compound 48]
- inhibition at 10 µM [1]: < 24%
- inhibition at 30 µM [1]: 50 to 74%
- inhibition at 10 µM [9]: 63%
- Cell viability 10 μM [4]: +++ (+, ++, and +++ mean the compound respectively shows 25-49%; 50-74%; or 75-100% viability to cells)
- Cell viability 30 μM [4]: +++ (+, ++, and +++ mean the compound respectively shows 25-49%; 50-74%; or 75-100% viability to cells)
- inhibition at 10 µM [6]: 25 to 49%
- inhibition at 30 µM [6]: 50 to 74%
- inhibition at 10 µM [10]: 56.4%
- Agonist Mode Mean percentage activation (%) at 10 μM, D1 ([11]; agonist mode): 4.36%
- inhibition at 10 µM ([11]; antagonist mode, read-out: Antagonist Mode Mean percentage inhibition (%) at 10 μM, D1): 6.62%
- Agonist Mode Mean percentage activation (%) at 10 μM, 5HT2B ([12]; agonist mode): −0.48%
- inhibition at 10 µM ([12]; antagonist mode, read-out: Antagonist Mode Mean percentage inhibition (%) at 10 μM, 5HT2B): 34.5%
- inhibition at 10 µM [14]: 46.2%

- Remaining (NCF = 60 min) [2]: 94.5%
- Remaining (T = 60 min) [2]: 82.0%
- CLint scaled [2]: < 38 mL/min/kg
- half-life [2]: > 145 min
- microsomal CLint [2]: < 9.6 µL/min/mg
- inhibition at 1 µM [3]: 0 to 24%
- inhibition at 10 µM [3]: 50 to 74%
- Remaining (NCF = 60 min) [7]: 129.8%
- Remaining (T = 60 min) [7]: 85.4%
- CLint scaled [7]: < 8.6 mL/min/kg
- half-life [7]: > 145 min
- microsomal CLint [7]: < 9.6 µL/min/mg
- inhibition at 1 µM [8]: 50 to 74%
- inhibition at 10 µM [8]: 75 to 100%
SMILES: Cn1cc(-c2cc(Cl)c(Cl)c3sc4c(c23)CN(C(=O)CN)CC4)cn1 [Compound 54]
- inhibition at 10 µM [1]: 75 to 100%
- inhibition at 30 µM [1]: 75 to 100%
- Cell viability 10 μM [4]: ++ (+, ++, and +++ mean the compound respectively shows 25-49%; 50-74%; or 75-100% viability to cells)
- Cell viability 30 μM [4]: − (Cell viability <24%, in THP1 cells is expressed as “−”)
- inhibition at 10 µM [6]: 75 to 100%
- inhibition at 30 µM [6]: 75 to 100%
